# In patent publication US20230113398A1, “INEXPENSIVE METAL-FREE ORGANIC REDOX FLOW BATTERY (ORBAT) FOR GRID-SCALE STORAGE” (UNIVERSITY OF SOUTHERN CALIFORNIA, priority 2013, published 2023):
# Where “and” joins values, the source holds several entries; their conditions need not be identical. Equal entries are not always repeated. Where two headings read alike, the source gives them in different places.
# How the values were obtained:
# [1] = Properties of some common quinones (literature data, Conant and Fieser); assay type: physicochemical
# Description: In a variation as set forth above, the flow battery utilizes a first quinone and a second quinone. Quinones are known to undergo fast electrochemical transformations which are necessary for sustaining high discharge and charge rates in a battery. The facility of electrochemical transformation is characterized by the kinetic parameter termed exchange current density. […] In general, useful quinones are highly soluble in water, chemically stable in strongly acidic/basic solutions, capable of high cell voltage of about 1 V, roundtrip efficiency >80%, and high discharge rate. By selecting a first quinone and a second quinone that are far apart in electrode potential, the cell voltage can be maximized to 1 V. Moreover, the electrode potentials can be modified favorably by substituent groups on the quinones as set forth below. Based on data provided in Table 1 and 2 (J.B. Conant and […]. Am. Chem.
# [2] = cited from earlier work
# [3] = Rotating disk electrode and cyclic voltammetry on glassy carbon, 1 mM compound in 1 M sulfuric acid; assay type: physicochemical; conditions: for Diffusion Coefficient, (cm^2 s^-1): Levich plot; for Transfer Coefficient, an: Tafel analysis; for Exchange Current Density, (A cm^-2): glassy carbon RDE; for Rate Constant, k°: obtained from exchange current density
# Experimental: Measurement of kinetic parameters and diffusion coefficients was conducted in a three-electrode cell consisting of a rotating glassy carbon disk working electrode, a platinum wire counter electrode, and a mercury/mercuric sulfate reference electrode (E° = +0.65 V). […] The solutions were de-aerated and kept under a blanket of argon gas throughout all the experiments. All measurements were conducted in the potentiodynamic mode (Versastat 300 potentiostat) at a scan rate of 5 mV s^-1 over a range of rotation rates (500 rpm to 3000 rpm). Impedance measurements were also made at each rotation rate. Cyclic voltammetry was conducted on a static glassy carbon electrode at a scan rate of 50 mV s^-1.
# (§1) Where n is the number of electrons transferred, F, the Faraday constant, A, electrode area, Do, the diffusion coefficient, v, the kinematic viscosity of the solution and C*, the bulk concentration of the reactants. For n = 2, an active electrode area of 0.1925 cm^2, and a kinematic viscosity of the electrolyte of 0.01 cm^2 s^-1, we were able to evalulate the diffusion coefficient from the slope of the straight line plots in FIG. 11D.
# (§2) To determine the kinetic parameters for the charge-transfer process, namely the rate constant and the apparent transfer coeffcient, the logarithm of the kinetic current (after correction for mass-transport losses) was plotted against the observed overpotentials greater than 100 mV, where the Tafel equation is applicable (Eq. 4 and FIG. 11E).
# (§3) Where I is the current, Ilim is the limiting current, Iex is the exchange current density, Co and CR are the concentration of the oxidized and reduced species at the surface of the electrode, Co* and CR* are the bulk concentrations of the oxidized and reduced species, α is the transfer coefficient, n is the number of electrons transferred, F is the Faraday constant, E-Erev is the overpotential, R is the gas constant, and T is the temperature. The rate constant, ko , was obtained from the exchange current density (Eq. 5).
# as §1, with “plots.” for “plots in FIG. 11D.”
# as §2, with “equation derived from the Butler-Volmer Equation” for “equation”, “: […]” for “(Eq. 4 and FIG. 11E).”
# as §3, with “using the relationship” for “(Eq. 5).”
# [4] = Cyclic voltammetry in 1 M potassium hydroxide; assay type: physicochemical
# [5] = Cyclic voltammetry in mixed solvent (DMF/water); assay type: physicochemical; conditions: DMF/water (80% DMF/20%Water for TYLENOL)
# [6] = in water, 25° C; cited from earlier work
# [7] = Table 5, MSE E°=+0.65 V, 1 M sulfuric acid
# [8] = Table 7, listed as Anthraquinone sulfonic acid
compound,measurement,setting,value
"O=C1C=CC=CC1=O [1,2-benzoquinone (ortho), 1,2-benzoquinone]","electrode potential higher relative to 1,4-benzoquinone (para-quinone)",[1],approximately 85 mV
same,"Electrode Potential vs. NHE, V",[2],0.786 V
"O=C1C=C(S(=O)(=O)O)C=C(S(=O)(=O)O)C1=O [1,2-benzoquinone-3,5-disulfonic acid, 1,2-benzoquinone-3,5-disulfonic acid]",Standard Reduction Potentials: E°(formal) Measured,[3]; 1 M sulfuric acid,0.87
same,kinetic reversibility from cyclic voltammograms,"[3]; 1 M sulfuric acid, glassy carbon","rapid oxidation step, but a slower reduction step"
same,"Diffusion Coefficient, (cm^2 s^-1)","[3]; Table 5, 1 M sulfuric acid",3.80E-6 cm^2 s^-1
same,"E½ vs. MSE, Volt",[3]; [7],0.45 Volt
same,"Transfer Coefficient, an",[3]; Table 5,0.582
same,"Exchange Current Density, (A cm^-2)","[3]; Table 5, 1 M sulfuric acid",3.00E-6 A cm^-2
same,"Rate Constant, k°",[3]; Table 5,0.000155 cm/s
same,Standard Reduction Potentials: Experimental (E½ values) vs. NHE,[3]; 1 M sulfuric acid,1.1
same,solubility,"Solubility; Solubility, Table 5",1000 mM
"O=C1C=CC(=O)C=C1 [1,4-benzoquinone (para), 1,4-benzoquinone]","Electrode Potential vs. NHE, V",[2],0.700 V
"O=C1C=C(S(=O)(=O)O)C(=O)c2ccccc21 [1,4-naphthaquinone-2-sulfonic acid]","Electrode Potential vs. NHE, V",[2],0.534 V
"O=C1C=CC(=O)c2ccccc21 [1,4-naphthaquinone]","Electrode Potential vs. NHE, V",[2],0.483 V
"O=C1c2cccc(S(=O)(=O)O)c2C(=O)c2c1cccc2S(=O)(=O)O [1,8 Anthraquinone disulfonic acid]",Diffusion Coefficient (cm2/sec),[3]; Table 7,3.39E-6 cm2/sec
same,Exchange Current density (A/cm^2),[3]; Table 7,1.60E-6 A/cm^2
same,"E½ vs. MSE, Volt","[3]; Table 7, 1 M sulfuric acid",-0.70 Volt
"O=C1c2cccc(O)c2C(=O)c2c(O)cccc21 [1,8-dihydroxy anthraquinone, 1,8-dihydroxy anthraquinone]",reversible peak potential vs. MMO,[4],approximately -0.60 V
"O=C1c2ccccc2C(=O)c2c(O)cccc21 [1-hydroxy-9,10-anthraquinone]","Electrode Potential vs. NHE, V",[2],0.131 V
"O=C1c2ccc(S(=O)(=O)O)cc2C(=O)c2cc(S(=O)(=O)O)ccc21 [2,7 Anthraquinone disulfonic acid]",Diffusion Coefficient (cm2/sec),[3]; Table 7,1.82E-6 cm2/sec
same,Exchange Current density (A/cm^2),[3]; Table 7,7.82E-7 A/cm^2
same,"E½ vs. MSE, Volt","[3]; Table 7, 1 M sulfuric acid",-0.57 Volt
"O=C1C=C(O)C(=O)c2ccccc21 [2-hydroxy-1,4-naphthaquinone]","Electrode Potential vs. NHE, V",[2],0.357 V
"O=C1C=CC(=O)C(O)=C1 [2-hydroxyl 1,4-benzoquinone]","Electrode Potential vs. NHE, V",[2],0.596 V
"O=C1c2ccccc2C(=O)c2ccccc21 [9,10-anthraquinone, reference compound]",Standard Reduction Potentials: E°(formal) Measured,[3]; 1 M sulfuric acid,Insoluble
same,Standard Reduction Potentials: Experimental (E½ values) vs. NHE,[3]; 1 M sulfuric acid,Insoluble
same,"Electrode Potential vs. NHE, V",[2],0.157 V
"O=C1c2ccccc2C(=O)c2c1cccc2S(=O)(=O)O [9,10-anthraquinone-1-sulfonic acid]","Electrode Potential vs. NHE, V",[2],0.183 V
"O=C1c2ccccc2C(=O)c2cc(S(=O)(=O)O)ccc21 [Anthraquinone-2-sulfonic acid, anthraquinone-2-sulfonic acid]",Standard Reduction Potentials: E°(formal) Measured,[3]; 1 M sulfuric acid,0.15
same,"Diffusion Coefficient, (cm^2 s^-1)","[3]; Table 5, 1 M sulfuric acid",3.71E-6 cm^2 s^-1
same,"E½ vs. MSE, Volt",[3]; [7],-0.52 Volt
same,"Transfer Coefficient, an",[3]; Table 5,0.677
same,"Exchange Current Density, (A cm^-2)","[3]; Table 5, 1 M sulfuric acid",1.96E-5 A cm^-2
same,"Rate Constant, k°",[3]; Table 5,0.000225 cm/s
same,Diffusion Coefficient (cm2/sec),[3]; Table 7,3.35E-6 cm2/sec
same,Exchange Current density (A/cm^2),[3]; Table 7,1.95E-5 A/cm^2
same,"E½ vs. MSE, Volt","[3]; Table 7, 1 M sulfuric acid",-0.52 Volt
same,Diffusion Coefficient (cm2/sec),[3]; [8],3.18E-6 cm2/sec and 3.35E-6 cm2/sec
same,Exchange Current density (A/cm^2),[3]; [8],1.95E-5 A/cm^2 and 2.91E-5 A/cm^2
same,Standard Reduction Potentials: Experimental (E½ values) vs. NHE,[3]; 1 M sulfuric acid,0.13
same,solubility,"Solubility; DMF/water, aqueous with cosolvent or surfactant or cyclodextrin, solubility in DMF/water",700 mM
same,solubility,"Solubility; Solubility, Table 5",200 mM
same,solubility,"Solubility; Solubility, Table 7",200 mM
same,solubility,"Solubility; water, aqueous solubility limit, aqueous",200 mM
same,reversibility of the electrochemistry,[5],reversible
O=S(=O)(O)c1cc(O)ccc1O [Hydroquinone sulfonic acid],Standard Reduction Potentials: E°(formal) Measured,[3]; 1 M sulfuric acid,0.70
same,"Diffusion Coefficient, (cm^2 s^-1)","[3]; Table 5, 1 M sulfuric acid",4.28E-6 cm^2 s^-1
same,"E½ vs. MSE, Volt",[3]; [7],0.17 Volt
same,"Transfer Coefficient, an",[3]; Table 5,0.418
same,"Exchange Current Density, (A cm^-2)","[3]; Table 5, 1 M sulfuric acid",1.10E-5 A cm^-2
same,"Rate Constant, k°",[3]; Table 5,0.000552 cm/s
same,Diffusion Coefficient (cm2/sec),[3]; Table 7,4.28E-6 cm2/sec
same,Exchange Current density (A/cm^2),[3]; Table 7,2.59E-5 A/cm^2
same,"Tafel Slope, mV/decade, dη/d(log I)",[3]; Table 7,63 mV/decade
same,"E½ vs. MSE, Volt","[3]; Table 7, 1 M sulfuric acid",0.17 Volt
same,Standard Reduction Potentials: Experimental (E½ values) vs. NHE,[3]; 1 M sulfuric acid,0.82
same,solubility,"Solubility; Solubility, Table 5",800 mM
same,solubility,"Solubility; Solubility, Table 7",800 mM
Oc1ccc(O)cc1 [Hydroquinone],Standard Reduction Potentials: E°(formal) Measured,[3]; 1 M sulfuric acid,0.68
same,"Diffusion Coefficient, (cm^2 s^-1)","[3]; Table 5, 1 M sulfuric acid",5.03E-6 cm^2 s^-1
same,"E½ vs. MSE, Volt",[3]; [7],0.02 Volt
same,"Transfer Coefficient, an",[3]; Table 5,0.508
same,"Exchange Current Density, (A cm^-2)","[3]; Table 5, 1 M sulfuric acid",5.09E-5 A cm^-2
same,"Rate Constant, k°",[3]; Table 5,0.00236 cm/s
same,Diffusion Coefficient (cm2/sec),[3]; Table 7,5.03E-6 cm2/sec and 5.4E-6 cm2/sec
same,Exchange Current density (A/cm^2),[3]; Table 7,9.17E-5 A/cm^2
same,"Tafel Slope, mV/decade, dη/d(log I)",[3]; Table 7,110 mV/decade
same,"E½ vs. MSE, Volt","[3]; Table 7, 1 M sulfuric acid",0.02 Volt
same,Standard Reduction Potentials: Experimental (E½ values) vs. NHE,[3]; 1 M sulfuric acid,0.67
same,solubility,"Solubility; Solubility, Table 5",530 mM
same,solubility,"Solubility; Solubility, Table 7",530 mM
O=c1[nH][nH]c(=O)c2ccccc12 [Phthalyl hydrazide],Diffusion Coefficient (cm2/sec),[3]; Table 7,1.07E-6 cm2/sec
same,Exchange Current density (A/cm^2),[3]; Table 7,3.03E-6 A/cm^2
same,"Tafel Slope, mV/decade, dη/d(log I)",[3]; Table 7,40 mV/decade
same,"E½ vs. MSE, Volt","[3]; Table 7, 1 M sulfuric acid",0.5 Volt
c1ccc2nccnc2c1 [Quinoxaline],Diffusion Coefficient (cm2/sec),[3]; Table 7,1.36E-6 cm2/sec and 1.09E-6 cm2/sec
same,solubility,"Solubility; Solubility, Table 7",> 7000 mM
"CC(=O)Nc1ccc(O)cc1 [TYLENOL®, reference compound]",reversibility of the electrochemistry,[5],DMF does not enhance the reversibility
"O=C1C(=O)C(Cl)=C(Cl)C(Cl)=C1Cl [Tetrachloro-1,2-benzoquinone]","Electrode Potential vs. NHE, V",[2],0.823 V
O=C1C=C(S(=O)(=O)O)C=C(S(=O)(=O)O)C1=O [benzoquinone disulfonic acid],solubility,[6],1700 mM
O=C1C=CC(=O)C=C1 [benzoquinone],solubility,[6],100 mM
Hydroquinone disulfonic acid,Diffusion Coefficient (cm2/sec),[3]; Table 7,3.80E-6 cm2/sec and 4.04E-6 cm2/sec
same,Exchange Current density (A/cm^2),[3]; Table 7,3.47E-6 A/cm^2
same,"Tafel Slope, mV/decade, dη/d(log I)",[3]; Table 7,123 mV/decade
same,"E½ vs. MSE, Volt","[3]; Table 7, 1 M sulfuric acid",0.45 Volt
same,solubility,Solubility; Table 7,1000 mM
Maleic hydrazide,Diffusion Coefficient (cm2/sec),[3]; Table 7,6.57E-6 cm2/sec
same,Exchange Current density (A/cm^2),[3]; Table 7,5.86E-6 A/cm^2
same,"Tafel Slope, mV/decade, dη/d(log I)",[3]; Table 7,54 mV/decade
same,"E½ vs. MSE, Volt","[3]; Table 7, 1 M sulfuric acid",0.6 Volt
anthraquinone-2-sulfonic acid salt,reversible peak potential vs. MMO,[4],about -0.4 V
